Test results published in US12642791B2, “Inhibitors of lysyl oxidases” (UNIVERSITY OF SOUTH CAROLINA, priority 2021, dated 2026).
Like-named read-outs stand apart in the source and are kept apart here.

What was measured:
MAO-B = molecular target: T1, MAO-B (Homo sapiens, UniProt P27338); experiment: MAO-GLO assay; type: biochemical; settings: cell-free enzymatic activity assay
T1 construct: purchased Active Motif, USA
T1 sequence (P27338 1-520): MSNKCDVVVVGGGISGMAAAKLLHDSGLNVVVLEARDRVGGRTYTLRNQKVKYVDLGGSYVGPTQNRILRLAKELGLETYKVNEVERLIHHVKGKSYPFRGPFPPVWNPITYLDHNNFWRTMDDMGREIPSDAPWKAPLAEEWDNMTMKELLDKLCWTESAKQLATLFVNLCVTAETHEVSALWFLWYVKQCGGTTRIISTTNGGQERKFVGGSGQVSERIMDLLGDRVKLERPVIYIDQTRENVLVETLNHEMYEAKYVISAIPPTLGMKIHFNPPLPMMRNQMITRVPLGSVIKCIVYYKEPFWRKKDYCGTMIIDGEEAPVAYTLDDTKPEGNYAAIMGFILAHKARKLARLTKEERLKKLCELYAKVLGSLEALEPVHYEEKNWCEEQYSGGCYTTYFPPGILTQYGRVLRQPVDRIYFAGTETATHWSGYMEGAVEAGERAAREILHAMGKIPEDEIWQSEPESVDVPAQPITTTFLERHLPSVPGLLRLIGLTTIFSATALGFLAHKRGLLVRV
Description: (§1) MAO-GLO assay (Promega, USA) was used to measure the MAO-A and MAO-B activity upon LOX inhibitor treatment according to the manufacturer's instructions. For the enzyme activity, substrate was used at a concentration of 160 μM and 16 μM for MAO-A and MAO-B, respectively. MAO-A and MAO-B enzymes (Active Motif, USA) were used in 0.2 μg/per well. Reaction mix, enzymes, and drugs (30, 10, 3, 1, 0.3, and 0.1 nM) were mixed and incubated for 3 hours at RT. Then, 50 μl of luciferin was added into wells and incubated for 20 min at RT. Luciferase signals were measured by using a multimode reader.

MAO-A = molecular target: T2, MAO-A (Homo sapiens, UniProt P21397); experiment: MAO-GLO assay; type: biochemical; settings: cell-free enzymatic activity assay
T2 construct: purchased Active Motif, USA
T2 sequence (P21397 1-527): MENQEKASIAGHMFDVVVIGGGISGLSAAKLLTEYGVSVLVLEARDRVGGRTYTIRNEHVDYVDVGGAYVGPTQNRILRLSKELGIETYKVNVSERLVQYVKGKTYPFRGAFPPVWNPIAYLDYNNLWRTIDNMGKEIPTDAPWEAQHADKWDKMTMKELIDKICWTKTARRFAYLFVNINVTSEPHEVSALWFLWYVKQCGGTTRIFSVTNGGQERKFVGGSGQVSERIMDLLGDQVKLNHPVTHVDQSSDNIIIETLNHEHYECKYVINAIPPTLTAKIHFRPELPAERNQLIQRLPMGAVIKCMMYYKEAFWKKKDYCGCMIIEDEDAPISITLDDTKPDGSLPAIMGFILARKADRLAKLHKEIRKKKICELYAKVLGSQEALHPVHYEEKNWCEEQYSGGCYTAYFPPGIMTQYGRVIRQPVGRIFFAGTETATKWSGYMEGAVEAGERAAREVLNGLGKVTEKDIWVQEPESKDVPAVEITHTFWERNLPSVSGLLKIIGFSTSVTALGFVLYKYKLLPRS
Description: as §1

[1] = system: cellular LOX activity, Caki-1; experiment: Cell-based LOX activity in kidney cancer cell line; design: species or system human
Description: (§2) FIG. 39. Inhibition of cellular LOX activity in pancreatic and kidney cancer cell lines. Inhibition of cellular LOX activity upon the treatment with BAPN, 6232, 6403 and 6415 in kidney cell line Caki-1 (A) and pancreatic cancer cell lines Mia-Paca-2 (B) and PANC1 (C).
(§3) For cell-based lysyl oxidase activity, fluorometric Lysly Oxidase Activity Assay Kit (Abcam, USA) was used according to manufacturer's instructions. Briefly, after the treatment, 50 μl of supernatant from each well was incubated with reagent mix and fluorescence measured in multimode-reader at Ex/Em=540/590 nm wavelength.

[2] = system: cellular LOX activity, PANC1; experiment: Cell-based LOX activity in pancreatic cancer cell line; design: species or system human
Description: as §2, §3

[3] = system: cellular LOX activity, Mia-Paca-2; experiment: as above; design: species or system human
Description: as §2, §3

[4] = system: cellular lysyl oxidase (LOX) activity, MDA-MB-231 cells; experiment: Cell-based lysyl oxidase activity assay (Abcam kit); design: species or system human
Source text: As the available LOX inhibitors are either not very potent or have toxicity, the inventors developed a robust screening pipeline shown in FIG. 28 to identify potent and safe LOX-specific and pan-LOX inhibitors. Briefly, a high-throughput cell-based LOX activity (Abcam) screen (HTS) was done for more than 5,000 drug-like compounds from the EXPRESS-Pick diversified library (4,480 molecules, ChemBridge) and Tocriscreen library of bioactive compounds (1,280 compounds, Tocris), each at a single concentration of 10 μM. […] The toxic molecules were counter screened with cell cytotoxicity assay and filtered out.
FIGS. 34. […] IC50 for cellular lysyl oxidase activity upon treatment of MDA-MB-231 cells with different LOX inhibitors. uM=microM.
as §3

MDA-MB-231 cells = experiment: Migration assay (RTCA CIM plate); type: cell-based, human; settings: 20 μM, 48 hours
Description: FIG. 37. LOX inhibitors, 6232, 6403 and 6415, reduced the migration capacity of the TNBC cell lines. RTCA-CIM plate used to measure the real-time migration of MDA-MB-231 cells upon treatment with 20 μM of 6232, 6403 and 6415 for 48 hours. (* p<0.05; ** p<0.01)
RTCA CIM Plate was used to assess the migration capacity of the cells upon LOX inhibitor treatment according to manufacturer's instructions. Briefly, 160 μl of 10% FBS containing media was added into each bottom chamber/50 μl of FBS free media into upper chamber and incubated 1 hour at 37° C. After the background measurement, 5×10^4 cells were seeded in FBS-free media into upper chamber in the presence of LOX inhibitors or vehicle. After the 30 min incubation at RT, real time cell migration was recorded for 48 hours.

[5] = read-out: cellular LOX activity

MAO-B activity inhibition (MAO-B) | MAO-A activity inhibition (MAO-A) | IC50 [4, 5] [nM] | IC50 ([4]; read-out: IC50 for cellular lysyl oxidase inhibition) [nM] | Structure (SMILES) | cellular LOX activity [1] | cellular LOX activity [2] | cellular LOX activity [3] | cellular lysyl oxidase inhibition compared to BAPN [4] | migration capacity (MDA-MB-231 cells)
did not inhibit | did not inhibit | 3500 | – | Cc1nc(N)sc1-c1csc(N(C)c2ccc(O)cc2)n1 [compound 6415, 4-[[4-(2-amino-4-methyl-thiazol-5-yl)thiazol-2-yl]-methyl-amino]phenol] | inhibited cellular LOX activity | inhibited cellular LOX activity | inhibited cellular LOX activity | more potent | inhibited the migration capacity
did not inhibit | did not inhibit | 1300 | 1300 | CC(=O)Nc1ccc(Nc2nc(-c3sc(N)nc3C)cs2)cc1 [compound 6403, N-[4-[[4-(2-amino-4-methyl-thiazol-5-yl)thiazol-2-yl]amino]phenyl]acetamide] | inhibited cellular LOX activity | inhibited cellular LOX activity | inhibited cellular LOX activity | more potent | inhibited the migration capacity
did not inhibit | did not inhibit | – | – | Cc1nc(N)sc1-c1csc(Nc2ccc([N+](=O)[O-])cc2)n1 [compound 6232, 4-methyl-5-[2-(4-nitroanilino)thiazol-4-yl]thiazol-2-amine] | inhibited cellular LOX activity | inhibited cellular LOX activity | inhibited cellular LOX activity | more potent | inhibited the migration capacity
